Literature values, collected in US20200276216A1, “INHIBITION OF GLYCOLYSIS WITH 2-DEOXY-D-GLUCOSE AND D-LACTIC ACID DIMER” (priority 2020, published 2020).

Tests used:
[1] = in vivo, po
[2] = in vivo
cancer cells = conditions: dose dependent, exclusive of its ability to lower pH

SMILES | half-life [1] [h] | estimated maximum approximate dose before side effects become clinically significant [2] [mg/kg/day] | selectivity of action in vitro (cancer cells)
O=CC[C@@H](O)[C@H](O)[C@H](O)CO [2DG, 2-Dexoxy-D-Glucose] | 4.5 to 8.2 | ~60 | –
C[C@@H](O)C(=O)O[C@H](C)C(=O)O [DLAD, D-Lactic Acid Dimer] | – | – | selective for cancer cells
